Experiments:
[1] = MTT cytotoxicity to normal human lung fibroblast Wi-38 cell line; format: cell-based; details: Wi-38 normal lung fibroblast cells, mean ± SEM, read-out: percentage of Wi-38 viability
Description: Normal human lung fibroblast Wi-38 cell line was used to detect cytotoxicity of the studied compounds (Table S8). Wi-38 cell line was cultured in DMEM medium-contained 10% fetal bovine serum (FBS), seeded as 5x10^3 cells per well in 96-well cell culture plate and incubated at 37 °C in 5% CO2 incubator. After 24 h for cell attachment, serial concentrations of the synthetic compounds were incubated with Wi-38 cells for 72 h. Cell viability was assayed by MTT method (Mosmann, 1983). Twenty microliters of 5 mg/ml MTT (Sigma, USA) was added to each well and the plate was incubated at 37 °C for 3 h. Then MTT solution was removed, 100 µl DMSO was added and the absorbance of each well was measured with a microplate reader (BMG LabTech, Germany) at 570 nm.

PC-3 cells = test: MTT assay anticancer activity, PC-3; format: cell-based; details: Homo sapiens, PC-3, 5 µM, mean ± SEM, read-out: growth inhibition percentage of PC-3
Source text: MTT method was done as described above.

HL-60(TB) = test: NCI anticancer screening, Leukemia HL-60(TB); format: cell-based; details: Homo sapiens, read-out: % Growth Inhibition (GI %)
Source text: (§1) The compound has been processed according to standard method NCI-60 Human Tumor Cell Lines Screen for organic compound at development therapeutic program (DTP). Requests for access to this national resource can be submitted online at: […]

MOLT-4 = test: NCI anticancer screening, Leukemia MOLT-4; format: cell-based; details: Homo sapiens; MOLT-4, 10 μM; read-out: % Growth Inhibition (GI %)
Source text: as §1

RPMI-8226 = test: NCI anticancer screening, Leukemia RPMI-8226; format: cell-based; details: Homo sapiens; RPMI-8226, 10 μM; read-out: % Growth Inhibition (GI %)
Source text: as §1

A549/ATCC = test: NCI anticancer screening, Non-Small Cell Lung Cancer A549/ATCC; format: cell-based; details: Homo sapiens, read-out: % Growth Inhibition (GI %)
Source text: as §1

HOP-62 = test: NCI anticancer screening, Non-Small Cell Lung Cancer HOP-62; format: cell-based; details: Homo sapiens; HOP-62, 10 μM; read-out: % Growth Inhibition (GI %)
Source text: as §1

NCI-H226 = test: NCI anticancer screening, Non-Small Cell Lung Cancer NCI-H226; format: cell-based; details: Homo sapiens; NCI-H226, 10 μM; read-out: % Growth Inhibition (GI %)
Source text: as §1

NCI-H522 = test: NCI anticancer screening, Non-Small Cell Lung Cancer NCI-H522; format: cell-based; details: Homo sapiens; NCI-H522, 10 μM; read-out: % Growth Inhibition (GI %)
Source text: as §1

HCC-2998 = test: NCI anticancer screening, Colon Cancer HCC-2998; format: cell-based; details: Homo sapiens; HCC-2998, 10 μM; read-out: % Growth Inhibition (GI %)
Source text: as §1

HT29 = test: NCI anticancer screening, Colon Cancer HT29; format: cell-based; details: Homo sapiens, HT-29; HT29, 10 μM; read-out: % Growth Inhibition (GI %)
Source text: as §1

MALME-3M = test: NCI anticancer screening, Melanoma MALME-3M; format: cell-based; details: Homo sapiens, read-out: % Growth Inhibition (GI %)
Source text: as §1

SK-MEL-28 = test: NCI anticancer screening, Melanoma SK-MEL-28; format: cell-based; details: Homo sapiens; SK-MEL-28, 10 μM; read-out: % Growth Inhibition (GI %)
Source text: as §1

UACC-257 = test: NCI anticancer screening, Melanoma UACC-257; format: cell-based; details: Homo sapiens; UACC-257, 10 μM; read-out: % Growth Inhibition (GI %)
Source text: as §1

UACC-62 = test: NCI anticancer screening, Melanoma UACC-62; format: cell-based; details: Homo sapiens; UACC-62, 10 μM; read-out: % Growth Inhibition (GI %)
Source text: as §1

IGROV1 = test: NCI anticancer screening, Ovarian Cancer IGROV1; format: cell-based; details: Homo sapiens, IGROV-1; IGROV1, 10 μM; read-out: % Growth Inhibition (GI %)
Source text: as §1

OVCAR-3 = test: NCI anticancer screening, Ovarian Cancer OVCAR-3; format: cell-based; details: Homo sapiens; OVCAR-3, 10 μM; read-out: % Growth Inhibition (GI %)
Source text: as §1

786-0 = test: NCI anticancer screening, Renal Cancer 786-0; format: cell-based; details: Homo sapiens; 786-0, 10 μM; read-out: % Growth Inhibition (GI %)
Source text: as §1

ACHN = test: NCI anticancer screening, Renal Cancer ACHN; format: cell-based; details: Homo sapiens, read-out: % Growth Inhibition (GI %)
Source text: as §1

CAKI-1 = test: NCI anticancer screening, Renal Cancer CAKI-1; format: cell-based; details: Homo sapiens; CAKI-1, 10 μM; read-out: % Growth Inhibition (GI %)
Source text: as §1

RXF 393 = test: NCI anticancer screening, Renal Cancer RXF 393; format: cell-based; details: Homo sapiens; RXF 393, 10 μM; read-out: % Growth Inhibition (GI %)
Source text: as §1

DU-145 = test: NCI anticancer screening, DU-145; format: cell-based; details: Homo sapiens; DU-145, 10 μM; read-out: % Growth Inhibition (GI %)
Source text: as §1

[2] = molecular target: T1, Mdm2 (residues 1–118 T47W) (Homo sapiens, UniProt Q00987, T47W); test: MDM2 binding by microscale thermophoresis (MST)
T1 construct: Mdm2 (residues 1–118 T47W; 500 nM)
Description: MST is a complementary biophysical assay to assess the binding of a small molecule to its receptor. […] Experiments were performed in 50 mM phosphate buffer at pH 7.4 containing 150 mM NaCl, 5 mM DTT, and 5% DMSO. […] Kd values and uncertainties were calculated using the MO Affinity Analysis software.

T1 sequence (Q00987 1-118 T47W): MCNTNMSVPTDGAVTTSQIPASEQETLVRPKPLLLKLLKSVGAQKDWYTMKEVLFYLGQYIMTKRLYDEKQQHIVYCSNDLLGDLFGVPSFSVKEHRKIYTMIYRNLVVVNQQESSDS

Row | Compound | viability at 72 h, 5 µM [1] | inhibition at 5 µM (PC-3 cells) | inhibition at 10 µM (HL-60(TB)) | inhibition at 10 µM (MOLT-4) | inhibition at 10 µM (A549/ATCC) | inhibition at 10 µM (HOP-62) | inhibition at 10 µM (NCI-H226) | inhibition at 10 µM (NCI-H522) | inhibition at 10 µM (HCC-2998) | inhibition at 10 µM (HT29) | inhibition at 10 µM (MALME-3M) | inhibition at 10 µM (SK-MEL-28) | inhibition at 10 µM (UACC-257) | inhibition at 10 µM (UACC-62) | inhibition at 10 µM (IGROV1) | inhibition at 10 µM (OVCAR-3) | inhibition at 10 µM (786-0) | inhibition at 10 µM (ACHN) | inhibition at 10 µM (CAKI-1) | inhibition at 10 µM (RXF 393) | other results
1 | O=C(c1nc2ccccc2[nH]1)[C@H]1[C@H](c2ccco2)C2CSCN2[C@]12C(=O)Nc1ccccc12 (stereo partly drawn) [Compound 6n, (3S,6′R)-6'-(1H-Benzo [d]imidazole-2-carbonyl)-7'-(furan-2-yl)-3′,6′,7′,7a′-tetrahydro-1′H-spiro [indoline-3.5′-pyrrolo [1,2-c]thiazol]-2-one] | 46.2 ± 1.47% | 52.5 ± 1.46% | 98.4% | 96.8% | 102% | 99.8% | 92.2% | 99.7% | 104% | 115% | 102% | 107% | 116% | 90.6% | 92.4% | 110% | 104% | 93.7% | 88.5% | 104% | inhibition at 10 µM (RPMI-8226): 101%; inhibition at 10 µM (DU-145): 114%
2 | CN(C)c1ccc([C@@H]2C3CSCN3[C@]3(C(=O)Nc4ccccc43)[C@H]2C(=O)c2nc3ccccc3[nH]2)cc1 (stereo partly drawn) [Compound 6k, (3S,6′R)-6'-(1H-Benzo [d]imidazole-2-carbonyl)-7'-(4-(dimethylamino)phenyl)-3′,6′,7′,7a′-tetrahydro-1′H-spiro [indoline-3.5′-pyrrolo [1,2-c]thiazol]-2-one] | 38.6 ± 3.02% | 41.6 ± 0.729% | 99.5% | 85.6% | 94.2% | 95.7% | 91.4% | 87.9% | 102% | 99.3% | 94.7% | 96.1% | 90.2% | 84.4% | 89.8% | 103% | 103% | 99% | 85.8% | 99.7% | inhibition at 10 µM (DU-145): 104%
3 | O=C(c1nc2ccccc2[nH]1)[C@H]1[C@H](c2ccc(C(F)(F)F)cc2)C2CSCN2[C@]12C(=O)Nc1ccccc12 (stereo partly drawn) [Compound 6c, (3S,6′R)-6'-(1H-Benzo [d]imidazole-2-carbonyl)-7'-(4-(trifluoromethyl)phenyl)-3′,6′,7′,7a′-tetrahydro-1′H-spiro [indoline-3.5′-pyrrolo [1,2-c]thiazol]-2-one] | 59.9 ± 2.84% | 54.1 ± 1.35% | 108% | 82.7% | 97.1% | 89.5% | 79% | 87.7% | 99.6% | 74.7% | 94.9% | 97.7% | 98.5% | 77.5% | 67.8% | 87.7% | 99.4% | 89.6% | 78.6% | 90.1% | inhibition at 10 µM (RPMI-8226): 72%; inhibition at 10 µM (DU-145): 97%
4 | O=C(c1nc2ccccc2[nH]1)[C@H]1[C@H](c2ccccc2O)C2CSCN2[C@]12C(=O)Nc1ccccc12 (stereo partly drawn) [Compound 6j, (3S,6′R)-6'-(1H-Benzo [d]imidazole-2-carbonyl)-7'-(2-hydroxyphenyl)-3′,6′,7′,7a′-tetrahydro-1′H-spiro [indoline-3.5′-pyrrolo [1,2-c]thiazol]-2-one] | 40 ± 2.38% | 40.3 ± 3.44% | 103% | 89.5% | 98.7% | 85.2% | 91.3% | 87.2% | 103% | 99.3% | 105% | 99% | 95.6% | 77.3% | 92.1% | 96.3% | 106% | 92.2% | 84% | 88.2% | inhibition at 10 µM (RPMI-8226): 104%; inhibition at 10 µM (DU-145): 98.7%
5 | O=C(c1nc2ccccc2[nH]1)[C@H]1[C@H](c2cccc(O)c2)C2CSCN2[C@]12C(=O)Nc1ccccc12 (stereo partly drawn) [Compound 6h, (3S,6′R)-6'-(1H-Benzo [d]imidazole-2-carbonyl)-7'-(3-hydroxyphenyl)-3′,6′,7′,7a′-tetrahydro-1′H-spiro [indoline-3.5′-pyrrolo [1,2-c]thiazol]-2-one] | 51 ± 1.83% | 40.4 ± 1.25% | 104% | 91.2% | 95.4% | 96.4% | 99.1% | 83.9% | 101% | 104% | 96.8% | 95.3% | 91.9% | 80% | 87.9% | 97.2% | 101% | 92.8% | 84.1% | 104% | Kd [2]: 6.68 µM; inhibition at 10 µM (RPMI-8226): 82.4%; inhibition at 10 µM (DU-145): 105%
6 | O=C(c1nc2ccccc2[nH]1)[C@H]1[C@H](c2cccc(F)c2)C2CSCN2[C@]12C(=O)Nc1ccccc12 (stereo partly drawn) [Compound 6m, (3S,6′R)-6'-(1H-Benzo [d]imidazole-2-carbonyl)-7'-(3-fluorophenyl)-3′,6′,7′,7a′-tetrahydro-1′H-spiro [indoline-3.5′-pyrrolo [1,2-c]thiazol]-2-one] | 43.7 ± 2.29% | 60.1 ± 0.521% | 98.4% | 85.5% | 84.6% | 97.9% | 92.6% | 77.8% | 91.8% | 86% | 97.5% | 102% | 99% | 80.1% | 84.6% | 103% | 100% | 90.2% | 74.7% | 85.2% | inhibition at 10 µM (RPMI-8226): 83.6%; inhibition at 10 µM (DU-145): 105%

— PMC11033320, “Activation of p53 signaling and regression of breast and prostate carcinoma cells by spirooxindole-benzimidazole small molecules” (Frontiers in Pharmacology, 2024)
